pIC50: −log10 of the molar value. Values joined by “and” are separate entries in the source; they are usually repeats but may differ in a detail not shown here. Identical values can stand only once. “Also recorded” adds a separate entry of the source. Like-named read-outs stand apart in the source and are kept apart here.
Columns and labels:
tubulin = assay type: biochemical, calf; conditions: in vitro; read-out: LC50 (inhibition of microtubule assembly in vitro)
[1] = test system: HOP-62 non-small cell lung cancer cells; experiment: cells; conditions: Homo sapiens
[2] = test system: HOP-62 non-small cell lung cancer cells
[3] = test system: HOP-92 non-small cell lung cancer cells
[4] = test system: SK-OV-3 ovarian cancer cells; experiment: cells; conditions: Homo sapiens
[5] = test system: MCF7/ADR-RES breast cancer cells; experiment: cells; assay type: cell-based
[6] = test system: HS 578T breast cancer cells; experiment: cells; conditions: Homo sapiens
A498 renal cancer cells [7] = experiment: cells; conditions: Homo sapiens
[8] = test system: RXF-393 renal cancer cells
[9] = test system: OVCAR-3 ovarian cancer cells; experiment: cells; conditions: Homo sapiens
[10] = test system: SK-OV-3 ovarian cancer cells
[11] = test system: HOP-92 non-small cell lung cancer cells; experiment: cells; conditions: Homo sapiens
tumor cell lines = experiment: cells; assay type: cell-based
[12] = test system: OVCAR-8 ovarian cancer cells
A498 renal cancer cells [13] = test system: A498 renal cancer cells
[14] = test system: RXF-393 renal cancer cells; experiment: cells; conditions: Homo sapiens; for GI50: RXF 393; for activity at 10 µM: RXF 393, read-out: Percent Growth, log10 conc -5.0; for activity at 1 µM: RXF 393, read-out: Percent Growth, log10 conc -6.0; for activity at 0.1 µM: RXF 393, read-out: Percent Growth, log10 conc -7.0; for activity at 0.01 µM: RXF 393, read-out: Percent Growth, log10 conc -8.0
SF-295 CNS cancer cells [15] = experiment: cells; conditions: Homo sapiens
[16] = test system: OVCAR-3 ovarian cancer cells
[17] = test system: HS 578T breast cancer cells
SF-295 CNS cancer cells [18] = test system: SF-295 CNS cancer cells
[19] = test system: CAKI-1 renal cancer cells; experiment: cells; conditions: Homo sapiens

CCCC(=O)NC1CCc2cc(OC)c(OC)c(OC)c2-c2ccc(C(C)=O)cc21 (centres unmarked)
pIC50 (tubulin): 6.22 | GI50 ([1]; HOP-62): < 10 nM | CC50 ([1]; HOP-62, read-out: LC50): > 100000 nM | activity at 100 µM ([1]; HOP-62, read-out: Percent Growth, log10 conc -4.0): 43% | activity at 10 µM ([1]; HOP-62, read-out: Percent Growth, log10 conc -5.0): 41% | activity at 1 µM ([1]; HOP-62, read-out: Percent Growth, log10 conc -6.0): 36% | TGI [2]: > 100000 nM | Percent Growth ([2]; log10 conc -4.0, 100 µM): 34% | Percent Growth ([2]; log10 conc -5.0, 10 µM): 44% | Percent Growth ([2]; log10 conc -6.0, 1 µM): 34% | Percent Growth ([2]; log10 conc -7.0, 0.1 µM): 25% and 46% | GI50 [3]: < 10 nM | TGI [3]: > 100000 nM | GI50 ([4]; SK-OV-3): < 10 nM | CC50 ([4]; SK-OV-3, read-out: LC50): > 100000 nM | GI50 ([5]; Homo sapiens, MCF7): < 10 nM | Percent Growth ([5]; log10 conc -4.0, 100 µM): -22% and -23% | GI50 [6]: < 10 nM | CC50 ([6]; read-out: LC50): > 100000 nM | activity at 100 µM ([6]; read-out: Percent Growth, log10 conc -4.0): 6% | activity at 10 µM ([6]; read-out: Percent Growth, log10 conc -5.0): 26% | activity at 1 µM ([6]; read-out: Percent Growth, log10 conc -6.0): 26% | activity at 0.1 µM ([6]; read-out: Percent Growth, log10 conc -7.0): 22% | GI50 (A498 renal cancer cells [7]; A498): 10.4 nM | CC50 (A498 renal cancer cells [7]; A498, read-out: LC50): 50000 nM | GI50 (SF-539 CNS cancer cells): < 10 nM | TGI (SF-539 CNS cancer cells): 12.9 nM | CC50 (SF-539 CNS cancer cells; human, sf-539 cns cancer cells): > 100000 nM | Percent Growth (SF-539 CNS cancer cells; log10 conc -4.0, 100 µM): -8% and 1% | Percent Growth (SF-539 CNS cancer cells; log10 conc -5.0, 10 µM): -13% and -12% | Percent Growth (SF-539 CNS cancer cells; log10 conc -6.0, 1 µM): -8% and -16% | Percent Growth (SF-539 CNS cancer cells; log10 conc -7.0, 0.1 µM): -13% and -11% | Percent Growth (SF-539 CNS cancer cells; log10 conc -8.0): 2% | Percent Growth (SF-539 CNS cancer cells; log10 conc -8.0, 0.01 µM): -8% | GI50 (SF-268 CNS cancer cells): < 10 nM | CC50 (SF-268 CNS cancer cells; human, sf-268 cns cancer cells): > 100000 nM | Percent Growth (SF-268 CNS cancer cells; log10 conc -5.0, 10 µM): 14% and 25% | Percent Growth (SF-268 CNS cancer cells; log10 conc -6.0, 1 µM): 18% and 30% | Percent Growth (SF-268 CNS cancer cells; log10 conc -7.0, 0.1 µM): 29% and 31% | Percent Growth (SF-268 CNS cancer cells; log10 conc -8.0, 0.01 µM): 43% and 32% | TGI [8]: > 100000 nM | Percent Growth ([8]; log10 conc -5.0, 10 µM): 26% | Percent Growth ([8]; log10 conc -6.0, 1 µM): 40% | Percent Growth ([8]; log10 conc -8.0, 0.01 µM): 29% | GI50 ([9]; OVCAR-3): < 10 nM | CC50 ([9]; OVCAR-3, read-out: LC50): > 100000 nM | Percent Growth ([10]; log10 conc -5.0): -19% | Percent Growth ([10]; log10 conc -7.0, 0.1 µM): 3% | GI50 (SNB-75 CNS cancer cells): < 10 nM | CC50 (SNB-75 CNS cancer cells; human, snb-75 cns cancer cells): > 100000 nM | Percent Growth (SNB-75 CNS cancer cells; log10 conc -4.0, 100 µM): 18% | Percent Growth (SNB-75 CNS cancer cells; log10 conc -8.0): -28% | GI50 ([11]; HOP-92): 17.6 nM | CC50 ([11]; HOP-92, read-out: LC50): > 100000 nM | GI50 (tumor cell lines): < 10 nM | activity in the NCI screen (tumor cell lines): activity similar to 7-acetamidoallocolchinone; also recorded: active | GI50 [12]: < 10 nM | TGI [12]: > 10 nM | CC50 ([12]; human, ovcar-8 ovarian cancer cells): > 100000 nM | GI50 (A498 renal cancer cells [13]): < 10 nM | CC50 (A498 renal cancer cells [13]; human, a498 renal cancer cells): > 100000 nM | Percent Growth (A498 renal cancer cells [13]; log10 conc -6.0, 1 µM): -40% | Percent Growth (A498 renal cancer cells [13]; log10 conc -8.0): 13% | GI50 [14]: < 10 nM | CC50 ([14]; RXF 393, read-out: LC50): > 100000 nM | activity at 10 µM [14]: 30% | activity at 1 µM [14]: 39% | activity at 0.1 µM [14]: 36% | activity at 0.01 µM [14]: 18% | GI50 (SNB-19 CNS cancer cells): < 10 nM | CC50 (SNB-19 CNS cancer cells; human, snb-19 cns cancer cells): > 100000 nM | Percent Growth (SNB-19 CNS cancer cells; log10 conc -4.0, 100 µM): 19% | Percent Growth (SNB-19 CNS cancer cells; log10 conc -6.0, 1 µM): 13% and 26% | Percent Growth (SNB-19 CNS cancer cells; log10 conc -8.0, 0.01 µM): 18% and 25% | GI50 (MOLT-4 leukemia cells): < 10 nM | TGI (MOLT-4 leukemia cells): > 100000 nM | CC50 (MOLT-4 leukemia cells; human, molt-4 leukemia cells): > 100000 nM | Percent Growth (MOLT-4 leukemia cells; log10 conc -4.0, 100 µM): 2% and 6% | Percent Growth (MOLT-4 leukemia cells; log10 conc -5.0): 9% | Percent Growth (MOLT-4 leukemia cells; log10 conc -6.0, 1 µM): 12% and 8% | Percent Growth (MOLT-4 leukemia cells; log10 conc -7.0, 0.1 µM): 12% and 8% | Percent Growth (MOLT-4 leukemia cells; log10 conc -8.0, 0.01 µM): 16% and 9% | GI50 (U251 CNS cancer cells): < 10 nM | CC50 (U251 CNS cancer cells; human, u251 cns cancer cells): > 100000 nM | Percent Growth (U251 CNS cancer cells; log10 conc -5.0): 5% | Percent Growth (U251 CNS cancer cells; log10 conc -6.0, 1 µM): 16% and 7% | Percent Growth (U251 CNS cancer cells; log10 conc -7.0, 0.1 µM): -16% | Percent Growth (U251 CNS cancer cells; log10 conc -8.0, 0.01 µM): 1% and 4% | GI50 (SF-295 CNS cancer cells [15]; SF-295): < 10 nM | CC50 (SF-295 CNS cancer cells [15]; SF-295, read-out: LC50): > 100000 nM | activity at 100 µM (SF-295 CNS cancer cells [15]; SF-295, read-out: Percent Growth, log10 conc -4.0): 21% | activity at 10 µM (SF-295 CNS cancer cells [15]; SF-295, read-out: Percent Growth, log10 conc -5.0): 10% | TGI [16]: < 10 nM | Percent Growth ([16]; log10 conc -4.0, 100 µM): -30% | Percent Growth ([16]; log10 conc -5.0): -21% | Percent Growth ([16]; log10 conc -7.0, 0.1 µM): -12% | Percent Growth ([16]; log10 conc -8.0, 0.01 µM): -16% and -19% | TGI [17]: > 100000 nM | Percent Growth ([17]; log10 conc -5.0, 10 µM): 41% | Percent Growth ([17]; log10 conc -6.0, 1 µM): 43% | Percent Growth ([17]; log10 conc -7.0, 0.1 µM): 31% | TGI (SF-295 CNS cancer cells [18]): > 100000 nM | Percent Growth (SF-295 CNS cancer cells [18]; log10 conc -4.0, 100 µM): 19% | Percent Growth (SF-295 CNS cancer cells [18]; log10 conc -5.0, 10 µM): 12% | GI50 ([19]; CAKI-1): < 10 nM | CC50 ([19]; CAKI-1, read-out: LC50): > 100000 nM

COc1cc2c(c(OC)c1OC)-c1ccc(C(C)=O)cc1C(N)CC2 (centres unmarked) [7-Amino-allocolchinone]
pIC50 (tubulin): 5.52

COc1cc2c(c(OC)c1OC)-c1ccc(OC)c(=O)cc1[C@@H](NC(C)=O)CC2 [Colchicine, reference compound]
Percent Growth ([12]; log10 conc -4.0, 100 µM): -39% | Percent Growth ([12]; log10 conc -8.0): 99% | GI50 [14]: < 10 nM | activity at 10 µM [14]: 13% | activity at 1 µM [14]: 9% | activity at 0.1 µM [14]: 7% | activity at 0.01 µM [14]: 48% | GI50 (MOLT-4 leukemia cells): 35.6 nM | Percent Growth (MOLT-4 leukemia cells; log10 conc -4.0, 100 µM): 1% | Percent Growth (MOLT-4 leukemia cells; log10 conc -5.0): 0% | Percent Growth (MOLT-4 leukemia cells; log10 conc -6.0, 1 µM): 1% | Percent Growth (MOLT-4 leukemia cells; log10 conc -8.0): 98%

Reference: US5760092A, “Allocolchinones and uses thereof” (Brandeis University, priority 1996, dated 1998)
